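Where inhibition never reached the appropriate level, the endpoint shown equals the highest concentration tested. Otherwise, values were interpolated linearly from a five-concentration, 48-hour dose response in 96-well plates. At the GI50, growth is halved. TGI marks complete inhibition of growth.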
Columns and labels:
Test in all cases: NCI-60 cell line screen, 48 h
RPMI-8226 leukemia = test system: RPMI-8226 leukemia
BT-549 breast = test system: BT-549 breast
MDA-MB-231 breast = test system: MDA-MB-231 breast
HCC-2998 colon = test system: HCC-2998 colon
NCI-H522 lung = test system: NCI-H522 lung
IGROV1 ovarian = test system: IGROV1 ovarian
SNB-19 CNS = test system: SNB-19 CNS
MALME-3M melanoma = test system: MALME-3M melanoma
SN12C renal = test system: SN12C renal
MCF7 breast = test system: MCF7 breast
MDA-MB-435 = test system: MDA-MB-435
U251 CNS = test system: U251 CNS
NCI-H23 lung = test system: NCI-H23 lung
CCRF-CEM leukemia = test system: CCRF-CEM leukemia
OVCAR-4 ovarian = test system: OVCAR-4 ovarian
SR leukemia = test system: SR leukemia
SK-MEL-5 melanoma = test system: SK-MEL-5 melanoma
HCT-116 colon = test system: HCT-116 colon
OVCAR-3 ovarian = test system: OVCAR-3 ovarian
ACHN renal = test system: ACHN renal
OVCAR-5 ovarian = test system: OVCAR-5 ovarian
T-47D breast = test system: T-47D breast
A498 renal = test system: A498 renal
HL-60(TB) leukemia = test system: HL-60(TB) leukemia
SNB-75 CNS = test system: SNB-75 CNS
SF-295 CNS = test system: SF-295 CNS
HOP-62 NSCLC = test system: HOP-62 NSCLC
NCI-H226 lung = test system: NCI-H226 lung
MOLT-4 leukemia = test system: MOLT-4 leukemia
SK-MEL-28 melanoma = test system: SK-MEL-28 melanoma
UACC-257 melanoma = test system: UACC-257 melanoma
OVCAR-8 ovarian = test system: OVCAR-8 ovarian
KM12 colon = test system: KM12 colon
SW-620 colon = test system: SW-620 colon
NCI-H460 lung = test system: NCI-H460 lung
HCT-15 colon = test system: HCT-15 colon
HT29 colon = test system: HT29 colon
A549 NSCLC = test system: A549 NSCLC
RXF 393 renal = test system: RXF 393 renal
HS 578T breast = test system: HS 578T breast
NCI/ADR-RES ovarian = test system: NCI/ADR-RES ovarian
EKVX NSCLC = test system: EKVX NSCLC
PC-3 prostate = test system: PC-3 prostate
SK-MEL-2 melanoma = test system: SK-MEL-2 melanoma
SF-268 CNS = test system: SF-268 CNS
UACC-62 melanoma = test system: UACC-62 melanoma
CAKI-1 renal = test system: CAKI-1 renal
786-0 renal = test system: 786-0 renal
DU-145 prostate = test system: DU-145 prostate
K-562 leukemia = test system: K-562 leukemia
TK-10 renal = test system: TK-10 renal
SK-OV-3 ovarian = test system: SK-OV-3 ovarian
LOX IMVI melanoma = test system: LOX IMVI melanoma
M14 melanoma = test system: M14 melanoma
SF-539 CNS = test system: SF-539 CNS
UO-31 renal = test system: UO-31 renal
HOP-92 NSCLC = test system: HOP-92 NSCLC

## O=C1N[C@@H]2[C@@H](O)[C@@H](O)[C@H](O)C[C@H]2c2cc3c(c(O)c21)OCO3
RPMI-8226 leukemia
  GI50: 169 nM
  TGI: 687 nM
BT-549 breast
  GI50: 206 nM
  TGI: 803 nM
MDA-MB-231 breast
  GI50: 136 nM
  TGI: 926 nM
HCC-2998 colon
  GI50: 95.7 nM
  TGI: 418 nM
NCI-H522 lung
  GI50: 85.2 nM
  TGI: 527 nM
IGROV1 ovarian
  GI50: 207 nM
  TGI: 1470 nM
SNB-19 CNS
  GI50: 73.7 nM
  TGI: 899 nM
MALME-3M melanoma
  GI50: 128 nM
  TGI: 537 nM
SN12C renal
  GI50: 93.6 nM
  TGI: 1030 nM
MCF7 breast
  GI50: 65.6 nM
  TGI: 881 nM
MDA-MB-435
  GI50: 113 nM
  TGI: 648 nM
U251 CNS
  GI50: 73.6 nM
  TGI: 1060 nM
NCI-H23 lung
  GI50: 102 nM
  TGI: 544 nM
CCRF-CEM leukemia
  GI50: 105 nM
OVCAR-4 ovarian
  GI50: 99.4 nM
  TGI: 975 nM
SR leukemia
  GI50: 103 nM
  TGI: > 100000 nM
SK-MEL-5 melanoma
  GI50: 84.1 nM
  TGI: 344 nM
HCT-116 colon
  GI50: 66 nM
  TGI: 1070 nM
OVCAR-3 ovarian
  GI50: 147 nM
  TGI: 794 nM
ACHN renal
  GI50: 132 nM
  TGI: 825 nM
OVCAR-5 ovarian
  GI50: 238 nM
  TGI: 1610 nM
T-47D breast
  GI50: 79.9 nM
  TGI: 2120 nM
A498 renal
  GI50: 200 nM
  TGI: 541 nM
HL-60(TB) leukemia
  GI50: 97.3 nM
  TGI: 472 nM
SNB-75 CNS
  GI50: 89.8 nM
  TGI: 861 nM
SF-295 CNS
  GI50: 157 nM
  TGI: 1050 nM
HOP-62 NSCLC
  GI50: 97.7 nM
  TGI: 883 nM
NCI-H226 lung
  GI50: 128 nM
  TGI: 699 nM
MOLT-4 leukemia
  GI50: 143 nM
  TGI: > 100000 nM
SK-MEL-28 melanoma
  GI50: 96.5 nM
  TGI: 608 nM
UACC-257 melanoma
  GI50: 131 nM
  TGI: 894 nM
OVCAR-8 ovarian
  GI50: 100 nM
  TGI: 1390 nM
KM12 colon
  GI50: 77.8 nM
  TGI: 584 nM
SW-620 colon
  GI50: 91.8 nM
  TGI: 3260 nM
NCI-H460 lung
  GI50: 83.8 nM
  TGI: 743 nM
HCT-15 colon
  GI50: 116 nM
  TGI: 1300 nM
HT29 colon
  GI50: 119 nM
  TGI: 1050 nM
A549 NSCLC
  GI50: 185 nM
  TGI: 2230 nM
RXF 393 renal
  GI50: 131 nM
  TGI: 562 nM
HS 578T breast
  GI50: 113 nM
  TGI: 713 nM
NCI/ADR-RES ovarian
  GI50: 223 nM
  TGI: 1650 nM
EKVX NSCLC
  GI50: 193 nM
  TGI: 1260 nM
PC-3 prostate
  GI50: 193 nM
  TGI: 1630 nM
SK-MEL-2 melanoma
  GI50: 98.4 nM
  TGI: 415 nM
SF-268 CNS
  GI50: 144 nM
  TGI: 991 nM
UACC-62 melanoma
  GI50: 178 nM
  TGI: 830 nM
CAKI-1 renal
  GI50: 142 nM
  TGI: 1160 nM
786-0 renal
  GI50: 174 nM
  TGI: 1590 nM
DU-145 prostate
  GI50: 90.7 nM
  TGI: 647 nM
K-562 leukemia
  GI50: 83.4 nM
  TGI: > 100000 nM
TK-10 renal
  GI50: 264 nM
  TGI: 1730 nM
SK-OV-3 ovarian
  GI50: 211 nM
  TGI: 2100 nM
LOX IMVI melanoma
  GI50: 53.6 nM
  TGI: 224 nM
M14 melanoma
  GI50: 81.3 nM
  TGI: 357 nM
SF-539 CNS
  GI50: 101 nM
  TGI: 548 nM
UO-31 renal
  GI50: 147 nM
  TGI: 1110 nM
HOP-92 NSCLC
  GI50: 86.8 nM
  TGI: 890 nM

— PubChem BioAssay (NCI)
